Values of other authors in patent US12234492B2, “Microorganism for fermentative production of 2-phenylethanol from gaseous substrates” (LanzaTech, Inc., priority 2020, dated 2025).
Several values for one entry are separate records, joined by “and”; a condition that tells them apart may be missing. Equal values may be shown once.

What was measured:
Enterococcus faecium = settings: range given jointly for S. aureus and E. faecium; Cone et al. 1990
Staphylococcus aureus = settings: range given jointly for S. aureus and E. faecium; Cone et al. 1990

OCCc1ccccc1 [2-PE, 2-phenylethanol]
growth inhibitory level (Enterococcus faecium): 26-43 mM and 3.2-5.3 g/L | growth inhibitory level (Staphylococcus aureus): 26-43 mM and 3.2-5.3 g/L
